Patent US6406859B1 (Synaptic Pharmaceutical Corporation, priority 1992, dated 2002)
Where two headings read alike, the source gives them in different places.

Columns and labels:
5-HT1F receptor [1] = molecular target: T1, 5-HT1F receptor (Homo sapiens, UniProt P30939); test: [3H]5-HT displacement binding to clonal 5-HT1F cell membranes (transfected Ltk- cells); set-up: The entire coding region of clone hl16a was cloned into the eukaryotic expression vector pcEXV-3; expressed in transfected cells; details: for affinity for 5-HT1F receptor in words: displacement of [3H]5-HT specific binding
T1 sequence (P30939 1-366): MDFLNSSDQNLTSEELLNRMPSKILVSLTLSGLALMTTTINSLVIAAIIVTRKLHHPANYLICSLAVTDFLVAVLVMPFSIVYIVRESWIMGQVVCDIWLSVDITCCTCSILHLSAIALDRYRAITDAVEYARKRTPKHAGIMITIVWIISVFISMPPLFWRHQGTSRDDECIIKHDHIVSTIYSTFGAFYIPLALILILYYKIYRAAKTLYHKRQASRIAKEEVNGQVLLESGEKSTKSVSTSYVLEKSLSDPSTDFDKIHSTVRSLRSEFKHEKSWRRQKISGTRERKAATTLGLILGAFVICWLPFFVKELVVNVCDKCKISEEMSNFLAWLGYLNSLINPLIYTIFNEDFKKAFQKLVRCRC
Description: Stable cell lines were obtained by cotransfection with the plasmid pcEXV-3 (containing the 5-HT1F receptor gene) and the plasmid pGCcos3neo (containing the aminoglycoside transferase gene) into Ltk^− cells or NIH3T3 cells using calcium phosphate (reagents obtained from Specialty Media, Lavellette, N.J.). The cells were grown in a controlled environment (37° C. 5% CO2) an monolayers in Dulbecco's modified Eagle medium (Gibco, Grand Island, N.Y.) containing 25 mM glucose and supplemented with 10% bovine calf serum, 100 U/ml penicillin G and 100 μg/ml streptomycin sulfate.
(§1) Membrane Preparation: Membranes were prepared from transfected Ltk^− cells which were grown to 100% confluency. The cells were washed twice with phosphate-buffered saline, scraped from the culture dishes into 5 ml of ice-cold phosphate-buffered saline, and centrifuged at 200×g for 5 min at 4°. The pellet was resuspended in 2.5 ml of ice-cold Tris buffer (20 mM Tris-HCl, pH 7.4 at 23°, 5 mM EDTA) and homogenized by a Wheaton tissue grinder. The lysate was subsequently centrifuged at 200×g for 5 min at 4° to pellet large fragments which were discarded. The supernatant was collected and centrifuged at 40,000×g for 20 min at 4°. The pellet resulting from this centrifugation was washed once in ice-cold Tris wash buffer and finally resuspended in a final buffer containing 50 mM Tris-HCl and 0.5 mM EDTA, pH 7.4 at 23°. Membrane preparations were kept on ice and utilized within two hours for the radioligand binding assays.
The binding profile of drugs in competition experiments was accomplished using 10-12 concentrations of compound. Incubation times were 30 min for both saturation and displacement studies based upon initial investigations which determined equilibrium binding conditions. […] Binding was initiated by the addition of 50 μl membrane homogenates (10-20 μg). […] All experiments were performed in triplicate.

5-HT1F receptor [2] = molecular target: T1, 5-HT1F receptor
Description: (§2) The antagonist Kb was estimated by method of Furchgott (32): Kb=(Dose of antagonist)/((E50 in the presence of antagonist/control E50) −1).
(§3) Transfected NIH3T3 cells (estimated Bmax from one point competition studies=486 fmol/mg of protein) were incubated in DMEM, 5 mM theophylline, 10 mM Hepes (4-[2-Hydroxyethyl]-1-piperazineethanesulfonic acid), 10 μM pargyline, for 20 minutes at 37° C., CO2. Drug dose-effect curves were then conducted by adding 6 different final concentrations of drug, followed immediately by the addition of forskolin (10 μM). Subsequently, the cells were incubated for an additional 10 minutes at 37° C., 5% CO2. The media was aspirated and the reaction terminated by the addition of 100 mM HCl. The plates were stored at 4° C. for 15 minutes and centrifuged for 5 minutes (500×g at 4° C.) to pellet cellular debris. Aliquots of the supernatant fraction were then stored at −20° C. prior to assessment of cAMP formation by radioimmunoassay (cAMP Radioimmunoassay kit, Advanced Magnetics, Cambridge, Mass.).

5-HT1E receptor = 5-HT1E receptor (Homo sapiens, UniProt P28566); details: U.S. Ser. No. 803,626; cited from earlier work
Sequence of 5-HT1E receptor (P28566 whole entry): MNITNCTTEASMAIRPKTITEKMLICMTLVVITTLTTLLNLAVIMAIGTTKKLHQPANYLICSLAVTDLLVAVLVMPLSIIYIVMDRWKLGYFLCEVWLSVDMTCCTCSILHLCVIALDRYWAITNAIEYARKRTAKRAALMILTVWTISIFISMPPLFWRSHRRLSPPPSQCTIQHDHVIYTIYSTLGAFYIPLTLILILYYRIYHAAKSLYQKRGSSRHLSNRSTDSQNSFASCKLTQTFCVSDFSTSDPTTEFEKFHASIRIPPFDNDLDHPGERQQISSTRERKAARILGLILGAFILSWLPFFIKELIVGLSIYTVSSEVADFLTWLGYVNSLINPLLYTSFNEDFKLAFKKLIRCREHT

5-HT1F receptor [3] = molecular target: T1, 5-HT1F receptor; test: Coupling to PI turnover; type: cell-based; set-up: The entire coding region of clone hl16a was cloned into the eukaryotic expression vector pcEXV-3; expressed in transfected cells; details: dose of 10 μM
human 5-HT1F receptor = test: Inhibition of [3H]5-HT specific binding by Gpp(NH)p (G-protein coupling); details: mean ± S.E.M., n=3
Description: as §1
The binding profile of drugs in competition experiments was accomplished using 10-12 concentrations of compound. Incubation times were 30 min for both saturation and displacement studies based upon initial investigations which determined equilibrium binding conditions. […] Binding was initiated by the addition of 50 μl membrane homogenates (10-20 μg). […] IC50 values were converted to K1 values using the Cheng-Prusoff equation (1973). All experiments were performed in triplicate.

dog saphenous vein = details: cited from earlier work
5-HT1F receptor [4] = molecular target: T1, 5-HT1F receptor; test: cell-based
Description: as §2, §3

[5] = read-out: Ki (nM) for the inhibition of [3H]5-HT specific binding, 4.5-5.5 nM [3H]5-HT, 10-12 drug concentrations, Cheng-Prusoff from IC50, mean ± S.E.M. of 2-4 determinations
[6] = read-out: Ki (nM) for the inhibition of [3H]5-HT specific binding

SMILES | Ki (5-HT1F receptor [1]) [nM] | affinity for 5-HT1F receptor in words (5-HT1F receptor [1]) | also measured
c1ccc2c(N3CCNCC3)cccc2c1 [1-Napthylpiperazine] | – | – | Ki (5-HT1F receptor [1]; unit inferred, read-out: K1): 54 nM; EC50 (5-HT1F receptor [2]; read-out: EC50 for decrease in forskolin-stimulated cAMP production): 4.5 ± 0.2 nM
Cc1[nH]c2ccc(O)cc2c1CCN [2-Methyl-5-HT] | – | – | Ki (5-HT1F receptor [1]; [5]): 413 ± 5.6 nM
NCCc1c[nH]c2ccc(OCc3ccccc3)cc12 [5-Benzoxytryptamine] | 1490 | – | –
NCCc1c[nH]c2ccc(C(N)=O)cc12 [5-CT, 5-carboxyamidotryptamine] | – | low affinity | affinity for 5-HT1F receptor in words (5-HT1F receptor [1]; listed as 5-carboxyamidotryptamine): significantly decreases the affinity; Ki (5-HT1F receptor [1]; [6]): 717 ± 71 nM; affinity for 5-HT1E receptor in words (5-HT1E receptor): low affinity
NCCc1c[nH]c2ccc(F)cc12 [5-Fluorotryptamine] | 1810 | – | –
NCCc1c[nH]c2ccc(O)cc12 [5-HT, 5-hydroxytryptamine] | – | highest affinity | coupling to PI turnover (5-HT1F receptor [3]): no evidence for coupling of this receptor to PI turnover was detected; maximum inhibition of cAMP production (5-HT1F receptor [2]; forskolin 10 μM): 67±5.4%
COc1ccc2[nH]cc(CCN)c2c1 [5-MT, 5-methoxytryptamine] | 1120 | significantly decreases the affinity | –
COc1ccc2[nH]cc(CCN(C)C)c2c1 [5-Methoxy-N,N-DMT, 5-methoxy-N,N-dimethyltryptamine] | 37.5 ± 1.5 | affinity much higher than the other 5-substituted tryptamine derivatives | –
CCCN(CCC)C1CCc2cccc(O)c2C1 (stereo not shown) [8-OH-DPAT] | – | very poor affinity | Ki (5-HT1F receptor [1]; [6]): 1770 nM
COc1cc(CC(C)N)c(OC)cc1I (stereo not shown) [DOI] | – | very poor affinity | Ki (5-HT1F receptor [1]; [6]): 1740 nM
CCCN(CCC)CCc1c[nH]c2ccc(C(N)=O)cc12 [DP-5-CT] | – | – | Ki (5-HT1F receptor [1]; [6]): 1610 nM
CN1C[C@H](C(=O)N[C@]2(C)O[C@@]3(O)[C@@H]4CCCN4C(=O)[C@H](Cc4ccccc4)N3C2=O)C[C@@H]2c3cccc4[nH]cc(c34)C[C@H]21 [Dihydroergotamine] | 276 ± 49 | – | –
C[C@@H](CO)NC(=O)[C@@H]1C=C2c3cccc4[nH]cc(c34)C[C@H]2N(C)C1 [Ergonovine] | 31 ± 1.5 | – | –
CN1C[C@H](C(=O)N[C@]2(C)O[C@@]3(O)[C@@H]4CCCN4C(=O)[C@H](Cc4ccccc4)N3C2=O)C=C2c3cccc4[nH]cc(c34)C[C@H]21 [Ergotamine] | – | – | Ki (5-HT1F receptor [1]; [5]): 171 ± 28 nM
Nc1nc2c(ncn2[C@@H]2O[C@H](COP(=O)(O)OP(=O)(O)NP(=O)(O)O)[C@@H](O)[C@H]2O)c(=O)[nH]1 [Gpp(NH)p] | – | – | Imax of inhibition of [3H]5-HT specific binding (human 5-HT1F receptor): 55.6±3.2%
COc1ccc2c3c([nH]c2c1)C(C)=NCC3 [Harmaline] | > 10000 | – | –
O=C(c1ccc(F)cc1)C1CCN(CCn2c(=O)[nH]c3ccccc3c2=O)CC1 [Ketanserin] | > 10000 | very poor affinity | –
COc1ccc2[nH]cc(CCNC(C)=O)c2c1 [Melatonin] | > 10000 | – | –
CN1C[C@@H](NS(=O)(=O)N(C)C)C[C@@H]2c3cccc4c3c(cn4C)C[C@H]21 [Mesulergine] | > 10000 | – | –

SMILES | Ki (5-HT1F receptor [1]) [nM] | affinity for 5-HT1F receptor in words (5-HT1F receptor [1]) | also measured
CN1C[C@H](CNC(=O)OCc2ccccc2)C[C@@H]2c3cccc4c3c(cn4C)C[C@H]21 [Metergoline] | – | – | block of the effects of sumatriptan (dog saphenous vein): does not block the effects of sumatriptan; Ki (5-HT1F receptor [1]; [5]): 341 ± 71 nM
CSc1ccc2c(c1)C(N1CCN(C)CC1)Cc1ccccc1S2 (stereo not shown) [Methiothepin] | – | – | Ki (5-HT1F receptor [1]; [5]): 652 ± 41 nM; blockade of functional 5-HT response (5-HT1F receptor [2]; 5-HT 1 μM, antagonist 10 μM): completely blocked; nature of antagonism (5-HT1F receptor [2]; FIG. 3, 5-HT curves with and without antagonist): surmountable; direct effect of compound on cAMP response (5-HT1F receptor [2]; compound alone): No direct effect; Kd (5-HT1F receptor [2]; read-out: apparent KD from dose shift of 5-HT concentration-effect curve, antagonist, method of Furchgott (FIG. 3)): 438 ± 14 nM
CC[C@@H](CO)NC(=O)[C@@H]1C=C2c3cccc4[nH]cc(c34)C[C@H]2N(C)C1 [Methylergonovine] | – | high affinity | Ki (5-HT1F receptor [1]; [5]): 31 ± 11 nM
CC[C@@H](CO)NC(=O)[C@@H]1C=C2c3cccc4c3c(cn4C)C[C@H]2N(C)C1 [Methysergide] | – | high affinity | Ki (5-HT1F receptor [1]; [6]): 34 ± 4.9 nM
COc1ccccc1N1CCN(CCCCN2C(=O)c3ccccc3C2=O)CC1 [NAN 190] | – | – | Ki (5-HT1F receptor [1]; [5]): 203 ± 13 nM
CC(C)NCC(O)COc1cccc2[nH]ccc12 (stereo not shown) [Pindolol] | > 10000 | very poor affinity | –
CC(C)NCC(O)COc1cccc2ccccc12 (stereo not shown) [Propanolol] | 8710 | – | –
c1ccc2nc(N3CCNCC3)ccc2c1 [Quipanzine] | – | – | Ki (5-HT1F receptor [1]; [6]): 4670 nM
Cc1nc2sccn2c(=O)c1CCN1CCC(=C(c2ccc(F)cc2)c2ccc(F)cc2)CC1 [Ritanserin] | 3520 | – | –
CN1CCc2cc(Cl)c(O)cc2[C@@H](c2ccccc2)C1 [SCH 23390] | 1490 | – | –
O=C(CCCN1CCC2(CC1)C(=O)NCN2c1ccccc1)c1ccc(F)cc1 [Spiperone] | > 10000 | very poor affinity | –
FC(F)(F)c1cccc(N2CCNCC2)c1 [TFMPP] | – | – | Ki (5-HT1F receptor [1]; [5]): 1000 nM
NCCc1c[nH]c2ccccc12 [Tryptamine] | – | significantly decreases the affinity | Ki (5-HT1F receptor [1]; [6]): 2410 nM
COC(=O)[C@@H]1[C@H]2C[C@H]3c4[nH]c5ccccc5c4CCN3C[C@@H]2CC[C@@H]1O [Yohimbine] | – | fair affinity | Ki (5-HT1F receptor [1]; [6]): 92 ± 11 nM
COc1cc(N)c(Cl)cc1C(=O)NC1CN2CCC1CC2 (stereo not shown) [Zacopride] | > 10000 | very poor affinity | –
CN1C[C@H](CO)C=C2c3cccc4[nH]cc(c34)C[C@H]21 [lysergol] | – | – | EC50 (5-HT1F receptor [4]): 8.8 ± 4.3 nM
Clc1cccc(N2CCNCC2)c1 [mCPP] | – | – | Ki (5-HT1F receptor [1]; [6]): 2020 nM
COC(=O)[C@H]1[C@H]2C[C@H]3c4[nH]c5ccccc5c4CCN3C[C@H]2CC[C@@H]1O [rauwolscine] | – | fair affinity | –
CC(N)Cc1c[nH]c2ccc(O)cc12 (stereo not drawn) [α-Methyl-5-HT] | 184 ± 35 | – | –
